Source: ChEMBL document CHEMBL5537157, “Selective Antitumor Effect and Lower Toxicity of Mitochondrion-Targeting Derivatization of Triptolide” (J Med Chem, 2024)
Active and inactive are the calls of the source. The rule behind the calls is not given here.

Experiments:
NCI-H1975 [1] = assay: Induction of apoptosis in human NCI-H1975 cells assessed as nuclear shrinkage at 400 nM incubated for 24 hrs by DAPI staining based analysis; assay type: functional, cell-based
NCI-H1975 [2] = assay: Induction of apoptosis in human NCI-H1975 cells at 50 to 400 nM incubated for 24 hrs by Annexin V-FITC/PI staining based flow cytometry; assay type: functional, cell-based; conditions: dose 50-400 nM
[3] = Developmental toxicity in zebrafish AB zygotes assessed as decrease in hatching rate at 0.25 to 1 uM treated at 6 hrs post-fertilization measured at 24 to 72 hrs post-fertilization; design: species or system Danio rerio; conditions: in vivo, dose lower 0.25 µM, time lower 18 hrs, dose upper 1 µM, time upper 66 hrs
[4] = Renal toxicity in zebrafish assessed as yolk sac absorption at 0.5 to 4 uM treated at 3 hrs post-fertilization measured at 48 hrs post-compound treatment by FITC staining based microscopy; design: species or system Danio rerio; conditions: in vivo, dose 0.5-4 µM
[5] = Toxicity in zebrafish embryo assessed as liver development at 1 uM with replacement of new growth solution daily by fluorescence microscopy (reference value: 100.00 +/- 8.64 %); assay type: tissue-based, Danio rerio; conditions: in vivo
[6] = Toxicity in zebrafish embryo assessed as liver function at 2 uM with replacement of new growth solution daily by fluorescence microscopy (reference value: 100 +/- 8.89 %); assay type: tissue-based, Danio rerio; conditions: in vivo
[7] = Toxicity in zebrafish embryo assessed as damage effect in liver function at 2 uM with replacement of new growth solution daily by fluorescence microscopy relative to control; design: species or system Danio rerio; conditions: in vivo
[8] = Cytotoxicity against human HUVEC cells assessed as cell growth inhibition at 4.5 to 10 nM incubated for 48 hrs by MTT assay relative to control; assay type: toxicity, cell-based; conditions: dose 4.5-10 nM, read-out: Imax
NCI-H1975 [9] = assay: Cytotoxicity against human NCI-H1975 cells assessed as cell growth inhibition at 4.5 to 10 nM incubated for 48 hrs by MTT assay relative to control; assay type: functional; conditions: dose 4.5-10 nM
NCI-H1975 [10] = assay: Cytotoxicity against human NCI-H1975 cells assessed as cell growth inhibition at 123 nM by MTT assay; assay type: functional, cell-based; conditions: time 24-70 hrs, TDE = time-dependent effect
NCI-H1975 [11] = assay: Inhibition of cell proliferation in human NCI-H1975 cells xenografted in zebrafish at 1 uM measured after 48 hrs by confocal microscopy; assay type: functional, cell-based
[12] = Renal toxicity in zebrafish assessed as increase in TNF-alpha expression at 0.5 to 2 uM treated for 48 hrs by RT-qPCR analysis; design: species or system Danio rerio; conditions: in vivo, dose 0.5-2 µM

In the case of CC(C)[C@]12O[C@H]1[C@@H]1O[C@]13[C@]1(O[C@H]1C[C@H]1C4=C(CC[C@@]13C)C(=O)OC4)[C@@H]2OC(=O)CCCCCCCC[n+]1ccc(/C=C/c2c[nH]c3ccccc23)cc1.[Br-], the Activity (NCI-H1975 [1]) is reported as “Active”, the Activity (NCI-H1975 [2]) is reported as “Active” and the Activity [3] is reported as “Non-Toxic”. For the same compound, the Activity [4] was “Non-Toxic”, the Activity [5] was 76.24% and the Activity [6] was 20.04%. It also gave an Activity [7] of 79.96%.

With CC(C)[C@]12O[C@H]1[C@@H]1O[C@@]13[C@@]1(C)CCC4=C(COC4=O)[C@@H]1C[C@@H]1O[C@@]13C2=O [TRIPTONIDE] the Emax at 48 h [8] was ~60%, the Imax (NCI-H1975 [9]) was ~40% and the inhibition (NCI-H1975 [10]) was “Tde”. For the same compound, the inhibition (NCI-H1975 [11]) was “Active” and the Activity [12] was “Toxic”.
